Consider 33 compounds from a melting point compilation (Tetko et al.; mined from patent text by program, amines drawn as free bases though some values may be those of a salt).

For `CN(C)c1ccc(NC(=O)N(CC(C)(C)C)C[C@H]2CC[C@H](CN(CC(C)(C)C)C(=O)Nc3ccc(N(C)C)cc3)CC2)cc1`, the melting point lay within 178 to 181 °C.

`COc1cc2c(cc1Nc1ncc(Cl)c(Nc3ccc(N4CCOCC4)cc3OC)n1)CCN(C(=O)CN(C)C)CC2` came in with a melting point of 84 to 101 °C.

`CC(C)c1cccc(C(C)C)c1NC(=O)CN1CCCN(CCCSc2nc3cccc(C(F)(F)F)c3o2)CC1` yielded a melting point of 77 to 79 °C.

Take `COC(=O)C1CCN2C(=O)C(=O)c3cc(Br)cc1c32` (stereo not drawn): the melting point lay in the range of 150 to 151 °C.

`N#Cc1ccc(OCCCN2CCN(C(CC(=O)O)c3cccnc3)C(=O)C2=O)cc1` (single isomer, unassigned; (-)) had a melting point of 199 to 200 °C.

Regarding `CCCCC1=NC2(CCCC2)C(=O)N1Cc1ccc(-c2ccccc2S(=O)(=O)Nc2onc(C)c2C)c(CCC(C)C)c1`, the melting point is 50 to 53 °C.

As to `CC(C)(C)OC(=O)Nc1cc(OCC2COC(C)(C)O2)c(C#Cc2ccccc2)cc1[N+](=O)[O-]` (racemic), the melting point amounted to 32 °C.

The compound `COc1ccc(-n2c(CC(=O)O)c(C(=O)O)c3cc(Oc4ccc(S(C)(=O)=O)cc4)ccc32)cc1` displayed a melting point of 222 °C.

In turn, `N#CC(N)c1cccc(Cl)c1` (stereo not drawn) had a melting point of 31 to 33 °C.

Regarding `N#Cc1ccc2c(c1)N(C1CC1)C=NS2(=O)=O`, the melting point lay within 273 to 276 °C.

In turn, `CCCCCCCCCCCN(O)C(=O)N(C)C` yielded a melting point of 54 to 55 °C.

In the case of `Nc1cc(F)c(OC(F)F)cc1[N+](=O)[O-]`, the melting point fell in the range of 95 to 97.5 °C.

As for `CCc1cn(C2CC(O)C(CCCCc3ccccc3)O2)c(=O)[nH]c1=O` (stereo not drawn), the melting point was 160 to 162 °C.

`CCCc1nc2c(N)nc3cc(OCCCN4CCCS4(=O)=O)ccc3c2n1CC(C)C` registered a melting point of 142 to 144 °C.

Take `COc1cccc(C(=O)O)c1OC(C)=O`: the melting point lay in the range of 139 to 140 °C.

With `CN1CCN(c2ccc3c(=O)c(C(=O)O)cn4c3c2CCC4)CC1`, the melting point fell in the range of 278 to 280 °C.

`CN(C(=O)OC(C)(C)C)c1cc(Oc2ccc(-c3ccccc3)cc2)ccc1[N+](=O)[O-]` returned a melting point of 166 to 167 °C.

Consider `O=c1cc(Cl)c2nc3ccc(F)cc3sc-2c1Cl`, for which the melting point lay in the range of 245 to 247 °C.

Take `O=C(O)Cc1cn(Cc2ccc(OCc3csc(-c4ccccc4)n3)nc2)nc1-c1ccccc1`: the melting point fell in the range of 118 to 119 °C.

In the case of `COc1ccc(CN(C(=O)C2CCCc3c(O)cccc32)c2ccc(C(C)C)cc2)c(OC)n1` (stereo not drawn), the melting point worked out at 190 °C.

The compound `O=C(CCCCCl)Nc1nnc(SCc2ccccc2)s1` displayed a melting point of 145 to 148 °C.

As for `O=C(Nc1ccc(Cl)cc1)c1cc(Cl)c2cccnc2c1O`, the melting point fell in the range of 214 to 216 °C.

Consider `COc1cccc2sc(-c3ccc([N+](=O)[O-])cc3Cl)nc12`, for which the melting point fell in the range of 187 to 188 °C.

Compound `CC(C)Cn1c(=O)n(C)c(=O)c2c(Br)c(C(=O)c3nc4ccccc4n3C)sc21` had a melting point of 258 °C.

`Cc1nc(-c2cccc3nc(N[C@@H]4CCc5ccccc54)ccc23)no1` yielded a melting point of 105 °C.

As to `CN1C(=O)N(C)C(O)(c2ccccc2)c2cc(Cl)ccc21` (stereo not drawn), the melting point lay within 174 to 176 °C.

Take `O=C(CNS(=O)(=O)c1ccc2ccccc2c1)NCC(NC(=O)C1CCN(c2ccncc2)CC1)C(=O)N1CCCCC1` (stereo not drawn): the melting point lay within 200 to 202 °C.

Take `COc1ccc(-c2nc(C)c(Br)[nH]2)cc1`: the melting point is 179 to 184 °C.

As to `NC(=O)c1cc2c(c3nc(O)c(O)nc13)CCCC2`, the melting point was over 300 °C.

Compound `CNC(=S)C1(c2cnc3ccccc3c2)CCCCC1=CC=O` (stereo not drawn) gave a melting point of 149 to 151 °C.

`Cc1ccc(-n2ncc(C(=O)O)c2C(N)=O)cc1C` gave a melting point of 231 to 232 °C.

Take `Cn1ccc2cc(NC(=O)/C=C/c3ccc(C(C)(C)C)cc3)ccc21`: the melting point amounted to 171 °C.

Compound `Cc1ccc(-c2c(N)ncnc2OCCO)cc1` came in with a melting point of 91.5 to 93.5 °C.

As usually defined, the melting point is the temperature, or range, at which the solid turns liquid.
